Data on 4 molecules can be found in ChEMBL document CHEMBL1150861, “Triterpene saponins from Tupidanthus calyptratus” (J Nat Prod, 2001).

Calls of active or inactive are those of the source. The calls are words filed in the database; no cut-off is given here.

One series concerns J774. In words: Antiproliferative activity against mouse J774 cells […] after 72 hrs by MTT assay. The series is classed as functional, cell-based. A general note: Tetrazolium dyes change colour on reduction, which living cells bring about.
The test system of the next series is WEHI-164. Put plainly: Antiproliferative activity against mouse WEHI164 cells […] after 72 hrs by MTT assay. It is filed as functional, cell-based.
A further series concerns HEK293. In words: Antiproliferative activity against HEK293 cells […] after 72 hrs by MTT assay. The series is classed as cell-based. The following applies: human, hek293, 72 h.

Consider `C[C@@H]1[C@H]2C3=CC[C@@H]4[C@@]5(C)C[C@@H](O)[C@H](O[C@@H]6OC[C@H](O)[C@H](O)[C@H]6O)[C@@](C)(CO)[C@@H]5CC[C@@]4(C)[C@]3(C)CC[C@@]2(C(=O)O[C@@H]2O[C@H](CO)[C@@H](O)[C@H](O)[C@H]2O)CC[C@]1(C)O`, for which the outcome in the series on J774 and in the series with WEHI-164 was inactive. For the same molecule, in the series with HEK293, the Activity entry is “Not Active”.
Turning to `C[C@@H]1[C@H]2C3=CC[C@@H]4[C@@]5(C)C[C@@H](O)[C@H](O[C@@H]6OC[C@H](O)[C@H](O[C@@H]7OC[C@@H](O)[C@H](O)[C@H]7O)[C@H]6O)[C@@](C)(CO)[C@@H]5CC[C@@]4(C)[C@]3(C)CC[C@@]2(C(=O)O[C@@H]2O[C@H](CO[C@@H]3O[C@H](CO)[C@@H](O)[C@H](O)[C@H]3O)[C@@H](O)[C@H](O)[C@H]2O)CC[C@]1(C)O`, the result in the series on J774 and with WEHI-164 was inactive. Moreover, the Activity entry with HEK293 was “Not Active”.
In the case of `C[C@@H]1O[C@@H](OC[C@H]2O[C@@H](OC(=O)[C@]34CC[C@](C)(O)[C@H](C)[C@H]3C3=CC[C@@H]5[C@@]6(C)CC[C@H](O[C@@H]7OC[C@H](O)[C@H](O[C@@H]8OC[C@@H](O)[C@H](O)[C@H]8O)[C@H]7O)[C@@](C)(CO)[C@@H]6CC[C@@]5(C)[C@]3(C)CC4)[C@H](O)[C@@H](O)[C@@H]2O)[C@H](O)[C@H](O)[C@H]1O`, the outcome in the series on J774 and with WEHI-164 was inactive. In the series on HEK293, the Activity entry is listed as “Not Active”.
For `C[C@@H]1[C@H]2C3=CC[C@@H]4[C@@]5(C)C[C@@H](O)[C@H](O[C@@H]6OC[C@H](O)[C@H](O[C@@H]7OC[C@@H](O)[C@H](O)[C@H]7O)[C@H]6O)[C@@](C)(CO)[C@@H]5CC[C@@]4(C)[C@]3(C)CC[C@@]2(C(=O)O[C@@H]2O[C@H](CO)[C@@H](O)[C@H](O)[C@H]2O)CC[C@]1(C)O`, the outcome in the series on J774 and with WEHI-164 was inactive. Moreover, in the series with HEK293, the Activity result was “Not Active”.
